{"source": "patent US6372746B1", "about": "“Derivatives of acyl-piperazinyl-pyrimidines, preparation thereof and application as medicaments” (Laboratorios Del Dr. Esteve, S.A., priority 1997, dated 2002)", "key": {"mice [1]": {"system": "mice", "assay": "Analgesic activity: protection from contortions induced by phenylbenzoquinone", "format": "in vivo", "conditions": "for DE50 (mg/kg, o.a.): o.a. (orally); for DE50 (mg/kg, o.a.) / DE50 (mg/kg, s.c.): phenylbenzoquinone 5 mg/kg i.p.", "method": "The analgesic activity of the products of the invention have been studied by evaluation of their effect in the test of contortions induced by phenylbenzoquinone in mice, following the method described by Siegmund E., and coworkers (Proc. Soc. Exp. Biol. Med. 1957, 95: 729-731).\nThe mice received the products of the study, a different dosage levels, and one later they received an injections i.p. of 5 mg/kg of phenylbenzoquinone. The portions of the mice were registered for the following fifteen minutes and compared the contortions of the control group. The DE50 (dosage efficacy 50) of the pound of Example 4 is shown."}, "mice [2]": {"system": "mice", "assay": "Sleep-inducing activity: capacity to increase the sleep time induced by barbital", "format": "in vivo", "conditions": "for % Activity (sleep) Dosage 100 mg/kg: product 100 mg/Kg i.p., 15 min after barbital 150 mg/Kg i.v.; for DE50: product i.p. 15 min after barbital 150 mg/Kg i.v., dosage efficacy 50", "method": "Sleep-inducing Activity in Mice\nFifteen minutes after the administration of barbital (150 mg/Kg, i.v.), the mice were treated with the product of the study at an initial dose of 100 mg/Kg (i.p.)."}, "mice [3]": {"system": "mice", "assay": "General anaesthetic activity in mice, I.V. administration", "format": "in vivo", "conditions": "i.v. caudal vein; for Duration: duration of sleep; for Start / Start (s): start of sleep", "method": "General Anaesthetic Activity\nThe general anaesthetic activity was study in mice, injecting the product of the study in the caudal vein. The start and duration time of sleep were recorded. The results for some of the products of the patent are shown in Table 3 and it can be seen that they show a clear anaesthetic activity with respect to the reference compound (Propofol), with the animals recovering later."}, "mice [4]": {"system": "mice", "assay": "Muscular relaxant (miorelaxant) activity in the Irwing mouse test", "format": "in vivo", "conditions": "80 mg/kg i.p.; for % muscular relaxation at a time of: 1 H: 1 H after administration; for % muscular relaxation at a time of: 2 H: 2 H after administration; for % muscular relaxation at a time of: 3 H: 3 H after administration; for % muscular relaxation at a time of: 4 H: 4 H after administration; for % muscular relaxation at a time of: 5 H: 5 H after administration; for % muscular relaxation at a time of: ½ H: ½ H after administration", "method": "Muscular Relaxant Activity\nThe mice received the products under study at a dosage of 80 mg/kg, via I.p., and at different times after administration (½, 1, 2, 3, 4 and 5 hours) the body tone and the abdominal tone was evaluated looking at the muscular tension compared to the control animals."}}, "note": "Counter-ions that a name gives are not always drawn.", "data": [{"smiles": "Cc1sc2ccccc2c1Cl", "values": [{"measurement": "melting point", "value": "175 to 176", "unit": "°C"}]}, {"smiles": "COc1ccnc(N2CCN(C(=O)c3ccco3)CC2)n1", "note": "(as salt: HCl) (hydrate or solvate) [Example 2, 2-[4-(2-furylcarbonyl)-1-piperazinyl]-4-methoxypyrimidine chlorohydrate]", "values": [{"measurement": "melting point", "value": "162 to 164", "unit": "°C"}]}, {"smiles": "COc1ccnc(N2CCN(C(=O)c3cccs3)CC2)n1", "note": "(as salt: HCl) (hydrate or solvate) [Example 4, 4-methoxy-2-[4-(2-thienylcarbonyl)-1-piperazinyl]pyrimidine chlorohydrate]", "values": [{"measurement": "melting point", "value": "143 to 145", "unit": "°C"}]}, {"smiles": "COc1ccnc(N2CCN(C(=O)c3ccsc3)CC2)n1", "note": "(as salt: HCl) (hydrate or solvate) [Example 13, 4-methoxy-2-[4-(3-thienylcarbonyl)-1-piperazinyl]pyrimidine chlorohydrate]", "values": [{"measurement": "melting point", "value": "154 to 156", "unit": "°C"}]}, {"smiles": "CC(=O)Oc1ccccc1C(=O)O", "note": "[Aspirin, reference compound]", "values": [{"measurement": "DE50 (mg/kg, o.a.)", "setting": "mice [1]", "value": 120, "unit": "mg/kg"}, {"measurement": "DE50 (mg/kg, s.c.)", "setting": "mice [1]", "value": 84, "unit": "mg/kg"}]}, {"smiles": "COc1ccnc(N2CCN(C(=O)c3ccco3)CC2)n1", "note": "[Example 2, 2-[4-(2-furylcarbonyl)-1-piperazinyl]-4-methoxypyrimidine chlorohydrate]", "values": [{"measurement": "% Activity (sleep) Dosage 100 mg/kg", "setting": "mice [2]", "value": 93, "unit": "%"}, {"measurement": "DE50", "setting": "mice [2]", "value": 14.4, "unit": "mg/kg"}, {"measurement": "Duration", "setting": "mice [3]; dosage 40 mg/kg", "value": 0.6, "unit": "min"}, {"measurement": "Start", "setting": "mice [3]; dosage 40 mg/kg", "value": 12, "unit": "s"}, {"measurement": "Duration", "setting": "mice [3]; dosage 80 mg/kg", "value": 5.3, "unit": "min"}, {"measurement": "Start (s)", "setting": "mice [3]; dosage 80 mg/kg", "value": "Immediate"}]}, {"smiles": "COc1ccnc(N2CCN(C(=O)c3cccs3)CC2)n1", "note": "[Example 4, 4-methoxy-2-[4-(2-thienylcarbonyl)-1-piperazinyl]pyrimidine chlorohydrate]", "values": [{"measurement": "% Activity (sleep) Dosage 100 mg/kg", "setting": "mice [2]", "value": 100, "unit": "%"}, {"measurement": "DE50", "setting": "mice [2]", "value": 8.7, "unit": "mg/kg"}, {"measurement": "Duration", "setting": "mice [3]; dosage 40 mg/kg", "value": 1.3, "unit": "min"}, {"measurement": "Start", "setting": "mice [3]; dosage 40 mg/kg", "value": 15, "unit": "s"}, {"measurement": "Duration", "setting": "mice [3]; dosage 80 mg/kg", "value": 7.4, "unit": "min"}, {"measurement": "Start (s)", "setting": "mice [3]; dosage 80 mg/kg", "value": "Immediate"}, {"measurement": "% muscular relaxation at a time of: 1 H", "setting": "mice [4]", "value": 90, "unit": "%"}, {"measurement": "% muscular relaxation at a time of: 2 H", "setting": "mice [4]", "value": 10, "unit": "%"}, {"measurement": "% muscular relaxation at a time of: 3 H", "setting": "mice [4]", "value": 0, "unit": "%"}, {"measurement": "% muscular relaxation at a time of: 4 H", "setting": "mice [4]", "value": 0, "unit": "%"}, {"measurement": "% muscular relaxation at a time of: 5 H", "setting": "mice [4]", "value": 0, "unit": "%"}, {"measurement": "% muscular relaxation at a time of: ½ H", "setting": "mice [4]", "value": 100, "unit": "%"}, {"measurement": "DE50 (mg/kg, o.a.)", "setting": "mice [1]", "value": 72, "unit": "mg/kg"}, {"measurement": "DE50 (mg/kg, s.c.)", "setting": "mice [1]", "value": 48, "unit": "mg/kg"}, {"measurement": "analgesic activity compared with aspirin (in words)", "setting": "mice [1]; subcutaneously and orally", "value": "better analgesic activity"}]}, {"smiles": "COc1ccnc(N2CCN(C(=O)C3CC3)CC2)n1", "note": "[Example 9]", "values": [{"measurement": "% Activity (sleep) Dosage 100 mg/kg", "setting": "mice [2]", "value": 67, "unit": "%"}, {"measurement": "DE50", "setting": "mice [2]", "value": 28.1, "unit": "mg/kg"}]}, {"smiles": "COc1ccnc(N2CCN(C(=O)c3ccsc3)CC2)n1", "note": "[Example 13, 4-methoxy-2-[4-(3-thienylcarbonyl)-1-piperazinyl]pyrimidine chlorohydrate]", "values": [{"measurement": "% Activity (sleep) Dosage 100 mg/kg", "setting": "mice [2]", "value": 77, "unit": "%"}, {"measurement": "DE50", "setting": "mice [2]", "value": 41.3, "unit": "mg/kg"}]}, {"smiles": "CCCC(C)(COC(N)=O)COC(N)=O", "note": "[Meprobamate, reference compound]", "values": [{"measurement": "% Activity (sleep) Dosage 100 mg/kg", "setting": "mice [2]", "value": 54, "unit": "%"}, {"measurement": "DE50", "setting": "mice [2]", "value": 84.5, "unit": "mg/kg"}]}, {"smiles": "CC(C)c1cccc(C(C)C)c1O", "note": "[Propofol, reference compound]", "values": [{"measurement": "Duration", "setting": "mice [3]; dosage 80 mg/kg", "value": 0, "unit": "min"}, {"measurement": "Start (s)", "setting": "mice [3]; dosage 80 mg/kg", "value": "No"}, {"measurement": "Duration", "setting": "mice [3]; dosage 106 mg/kg", "value": 6.2, "unit": "min"}, {"measurement": "Start", "setting": "mice [3]; dosage 106 mg/kg", "value": 30, "unit": "s"}, {"measurement": "Duration", "setting": "mice [3]; dosage 120 mg/kg", "value": 3.9, "unit": "min"}, {"measurement": "Start", "setting": "mice [3]; dosage 120 mg/kg", "value": 20, "unit": "s"}, {"measurement": "% muscular relaxation at a time of: 1 H", "setting": "mice [4]", "value": 100, "unit": "%"}, {"measurement": "% muscular relaxation at a time of: 2 H", "setting": "mice [4]", "value": 70, "unit": "%"}, {"measurement": "% muscular relaxation at a time of: 3 H", "setting": "mice [4]", "value": 0, "unit": "%"}, {"measurement": "% muscular relaxation at a time of: 4 H", "setting": "mice [4]", "value": 0, "unit": "%"}, {"measurement": "% muscular relaxation at a time of: 5 H", "setting": "mice [4]", "value": 0, "unit": "%"}, {"measurement": "% muscular relaxation at a time of: ½ H", "setting": "mice [4]", "value": 100, "unit": "%"}]}]}
